Assay results taken from paper PMC11483813, “Bombesin-Targeted Delivery of β-Carboline-Based Ir(III) and Ru(II) Photosensitizers for a Selective Photodynamic Therapy of Prostate Cancer” (Inorganic Chemistry, 2024).
Several values for one entry are separate records, joined by “and”; a condition that tells them apart may be missing. Identical values can stand only once. Residues, ends and D or L forms follow the SMILES beside them. *: point of attachment. X1 = Cn1c2ccccc2c2ccnc(-c3ccc(/C=C/C(=O)*)cn3)c21

What was measured:
[1] = system: PC-3 cells; experiment: Mitochondrial membrane potential, JC-10 flow cytometry; assay type: cell-based, human; settings: IC50,light 4 h, blue light 1 h, control 63.0 ± 10.6%
Description: Figure 12 Effect on mitochondria function. PC-3 cells were incubated with the indicated compounds at the corresponding IC50,light for 4 h at 37 °C and then exposed to blue light for 1 h. Cells incubated with the medium alone served as the negative control. (A) Confocal microscopy images of the cells. Nuclei were stained blue with Hoechst (λex: 350 nm; λem: 461 nm), and mitochondria were labeled with MitoTracker Red CMXRos (λex: 579 nm; λem: 599 nm). Insets show a 3× magnification of the cells. Scale bars represent 50 μm in 1× images and 20 μm in 3× images. (B) Flow cytometry analysis of the effect of the complexes on mitochondrial membrane potential. […] A decrease in the percentage of cells emitting orange fluorescence indicates a loss of MMP. p < 0.05 and ** p < 0.01 compared to control cells.
Flow cytometry analysis using the mitochondrial specific dye JC-10 confirmed this effect. The fluorescence of JC-10 undergoes a reversible change from green to orange as MMP increases, due to the formation of JC-10 aggregates within polarized mitochondria. This property allows for the simultaneous detection of healthy and depolarized mitochondria. In control cells, orange fluorescence emission corresponding to healthy mitochondria was detected in 63.0 ± 10.6% of cells (Figure 12B). […] Furthermore, the complexes’ ability to photocatalytically oxidize NADH, a primary electron donor for the mitochondrial electron transport chain, may contribute to the mitochondrial damage.
Flow cytometry assessment of the mitochondrial membrane depolarization: PC-3 cells were seeded on 12-well plates at a density of 100000 cells per well. 24 h later, cells were treated with the compounds as described above. Cells were subsequently harvested using trypsinization and incubated with JC-10 dye (Deltaclon) according to the manufacturer’s protocol. A Novocyte flow cytometer was employed to analyze the fluorescence emission of JC-10 in 10000 cells. Fluorescence was detected at 590 nm (FL2) to identify the percentage of cells with healthy mitochondria and at 529 nm (FL1) to determine the percentage of cells with depolarized mitochondria. Each compound was evaluated in three independent experiments, and the mean and standard deviation of the results were represented.

[2] = Emission and photophysical properties; assay type: physicochemical; settings: H2O:DMSO (99:1), 25 °C, nitrogen atmosphere; for λem: λex 405 nm (Ir) or 450 nm (Ru)
Description: The emission spectra of the metal complexes in deoxygenated solutions of H2O:DMSO (99:1, v:v, 10^–5 M) were recorded at 25 °C, using λex of 405 nm for Ir-Me/Ir-H and λex of 450 nm for Ru-Me/Ru-H (Figure 3). […] Moreover, Ir-Me/Ru-Me featured lower emission intensities compared to Ir-H/Ru-H, respectively.
The excited state lifetimes (τ) and the photoluminescence quantum yields were also determined for the new metal complexes (Table 2). […] These values compare well with those of similar complexes and are compatible with a triplet nature for the emissive states. The photoluminescence quantum yields (ΦPL) of Ir(III)/Ru(II) were very low with values ranging from 1.1 to 4.13%.
All synthetic manipulations for Ir(III) and Ru(II) complexes were carried out under an atmosphere of dry, oxygen-free nitrogen using standard Schlenk techniques. The solvents were dried and distilled under a nitrogen atmosphere before use. Elemental analyses were performed with a Thermo Fisher Scientific EA Flash 2000 Elemental Microanalyzer. UV–vis absorption was measured in a Jasco V-750 UV–visible spectrophotometer. Fluorescence steady-state and lifetime measurements were performed in an FLS980 (Edinburgh Instruments) fluorimeter with Xenon Arc Lamp 450 W and TCSPC laser, respectively. Photoluminescence quantum yields was determined by using FLS980 (Edinburgh Instruments) with Xenon Arc Lamp 450 W and Red PMT Sphere as a detector. HR-ESI(+) mass spectra were recorded with an Agilent LC-MS system (1260 Infinity LC/6545 Q-TOF MS spectrometer) using dichloromethane (DCM) as a sample solvent and H2O (0.1% formic acid)/MeOH (0.1% formic acid) and 30:70 as the mobile phase. The experimental m/z values are expressed in Da and were compared with the m/z values for monoisotopic fragments. […] Chemical shift values (δ) are reported in ppm and coupling constants (J) in hertz. The splitting of proton resonances in the reported ^1H NMR data is defined as s = singlet, d = doublet, t = triplet, q = quartet, m = multiplet, and bs = broad singlet. 2D NMR spectra were recorded using standard pulse sequences. All NMR data processing was carried out using MestReNova version 10.0.2. […]
an integrating sphere. For the determination of the luminescence lifetime, the fluorescence decay was measured on a FLS980 spectrofluorometer equipped with a TSCPC laser (Ir(III) complexes: λ ex = 405 nm; Ru(II) complexes: λ ex = 450 nm) and a REDPMT detector. The F980 spectrometer operating software was used to collect and process luminescence lifetime data. […]
Photocatalytic oxidation of NADH. […]
A decrease in the absorption band with maxima at 338 nm was considered to confirm the photocatalytic oxidation of NADH into NAD+. […]
Both phases were then separated. Next, approximately 0.1 mg of the corresponding photosensitizer was dissolved in 1 mL of PBS-saturated n-octanol. Subsequently, 1 mL of octanol-saturated PBS was added, and the mixture was stirred vigorously at room temperature for 24 h. The two layers were separated carefully, and the absorbance of each layer was determined at the respective local maximum located around 425 nm. The log P oct/PBS values were determined as follows: […]

| ΦPL [2] [%] | τ [contribution (%)], first or only component [2] | τ [contribution (%)], second component [2] | λem [2] [nm] | SMILES | population of cells emitting JC-10 orange fluorescence [1] [%] |
| --- | --- | --- | --- | --- | --- |
| 4.13 | 23 ns and 23 [51] ns | 145 ns and 145 [49] ns | 651 | Cn1c2ccccc2c2ccnc(-c3ccc(/C=C/C(=O)O)cn3)c21.[Cl-].[Ir+3].[c-]1ccccc1-c1ccccn1.[c-]1ccccc1-c1ccccn1 [Ir-H] | 16.6 ± 9.2 |
| 3.13 | 186 ns | – | 688 | Cn1c2ccccc2c2ccnc(-c3ccc(/C=C/C(=O)O)cn3)c21.[Cl-].[Cl-].[Ru+2].c1ccc(-c2ccccn2)nc1.c1ccc(-c2ccccn2)nc1 [Ru-H] | 28.2 ± 7.8 |
| – | – | – | – | CC(C)C[C@H](NC(=O)[C@H](CC(C)C)NC(=O)[C@H](Cc1c[nH]cn1)NC(=O)CNC(=O)[C@@H](NC(=O)[C@H](C)NC(=O)[C@H](Cc1c[nH]c2ccccc12)NC(=O)[C@H](CCC(N)=O)NC(=O)[C@H](CC(N)=O)NC(=O)CNC(=O)[C@H](CC(C)C)NC(=O)[C@H](CCCNC(=N)N)NC(=O)[C@H](CCC(N)=O)NC(=O)/C=C/c1ccc(-c2nccc3c4ccccc4n(C)c23)nc1)C(C)C)C(N)=O [Ir-BN] (X1-QRLGNQWAVGHLL-NH2) | 16.0 ± 9.5 |
| 3.50 | 2 ns and 2 [20] ns | 93 ns and 93 [80] ns | 676 | COC(=O)/C=C/c1ccc(-c2nccc3c4ccccc4n(C)c23)nc1.[Cl-].[Ir+3].[c-]1ccccc1-c1ccccn1.[c-]1ccccc1-c1ccccn1 [Ir-Me] | 21.2 ± 4.9 |
